# “Also recorded” adds a separate entry of the source.
# Tests used:
# [1] = system: transfected NIH/3T3 cells; assay: Short term cell proliferation assay for GCV sensitivity; format: cell-based
# Description: (§1) C. Negative Selection of Cells Containing the HyTK (SEQ ID NO:1 Selectable Fusion Gene. To investigate the utility of the HyTK (SEQ ID NO:1 selectable fusion gene for negative selection, the colonies resulting from each transfection (Table 1) were pooled and expanded into cell lines for further analysis. The Hm^r NIH/3T3 cell pools and the Hm^r and HAT^r Rat-2 cell pools were tested for GCV^s in a short term cell proliferation assay as follows.
# (§2) The transfected NIH/3T3 and Rat-2 cells (3×10^4 of each) were seeded into 9-cm tissue culture dishes in complete growth medium, and allowed to attach for 4 hours. The medium was then supplemented with various concentrations of GCV (Syntex, Palo Alto, Calif.), and the cells incubated for an additional 60 hours. At this time, the medium was removed, the attached cells were harvested by trypsinization and stained with trypan blue, and the viable cells were counted. Cell growth was expressed as a fraction of the cell growth observed in the absence of GCV. The results shown are the average of triplicate assays.
# transfected Rat-2 cells = assay: as above; format: cell-based
# Description: as §1, §2
# NIH/3T3 cells [2] = assay: Long-term cell proliferation assay for GCV sensitivity (colony formation); format: cell-based
# Description: Uninfected NIH/3T3 cells and the infected NIH/3T3 cell pools were plated at relatively low cell density (10^4 cells/[…]) in complete growth medium and allowed to attach for 4 hours. The medium was then supplemented with hygromycin B (500 μg/ml), with or without 1 μM GCV, and the cells incubated for a period of 10 days. The medium was then removed and the cells were fixed in situ with 100% methanol and stained with methylene blue. […] Colonies of cells resistant to both Hm and GCV were obtained at a low frequency (10^−4-10^−3) from the retrovirus-infected populations (FIG. 6, plates e and g). The proviruses present in the cells that gave rise to these colonies had likely suffered point mutations, or very small deletions or rearrangements in the HSV-I TK moiety which eliminated the ability to phosphorylate GCV. Similar results were also obtained with Rat-2 cell lines infected with tgLS(+)HyTK or with tgLS(−)CMV/HyTK (data not shown).
# [3] = system: cells expressing the HSV-I TK gene; details: cited from earlier work
# murine sarcoma (K3T3) = details: syngeneic mice; Moolten and Wells 1990; cited from earlier work
# NIH/3T3 cells [4] = assay: Long-term proliferation assay for 5-FC sensitivity; format: cell-based; details: 10-14 days
# Description: C. Negative Selection of Cells Containing the CD-neo (SEQ ID NO:3 Selectable Fusion Gene. To investigate the utility of the neo and CD-neo (SEQ ID NO:3 selectable fusion genes for negative selection, the colonies resulting from each transfection were pooled and expanded into cell lines for further analysis. The NIH/3T3 cells, or NIH/3T3 cells infected with the tgLS(+)neo or tgLS(+)CD-neo retroviruses were assayed for 5-FC^s using a long-term proliferation assay.
# First, 1×10^4 cells were seeded into 10 cm tissue culture dishes in complete growth medium and allowed to attach for 4 hours. The medium was then supplemented with various concentrations of G-418 and/or 5-FC (Sigma), after which the cells were incubated for a further 10-14 days. The medium was replaced every 2-4 days. The cells were then fixed in situ with 100% methanol and stained with methylene blue.
# [5] = NIH/3T3 cells infected with tgLS(+)CD-neo, 800 μg/ml G-418, 100 μg/ml 5-FC
# [6] = NIH/3T3 cells infected with tgLS(+)neo, 800 μg/ml G-418, 100 μg/ml 5-FC
# [7] = uninfected NIH/3T3 cells, 800 μg/ml G-418 or 100 μg/ml 5-FC
smiles,measurement,setting,value
"Nc1nc(O)c2ncn(COC(CO)CO)c2n1 [GCV, ganciclovir]",inhibition at 1 µM,"[1]; Mus musculus, NIH3T3, NIH/3T3 cells transfected with tgCMV/HyTK, 1 μM GCV, 60 hours, read-out: Degree of inhibition of cell growth",~100%
same,Effect of GCV on cell growth,[1]; NIH/3T3 cells transfected with tgCMV/HyTK,inhibits growth
same,Effect of GCV on cell growth,"[1]; NIH/3T3 cells transfected with tgCMV/hygro, 0.03 μM-1.0 μM GCV",does not inhibit growth; also recorded: not adversely affected
same,Sensitivity to GCV of Rat-2 cell pools transfected with tgCMV/HyTK relative to Rat-2 cells transfected with tgCMV/TK,"transfected Rat-2 cells; Rat-2, both Hm^r and HAT^r selected pools",over 30 fold
same,Effect of GCV on cell growth,"transfected Rat-2 cells; Rat-2 cells transfected with tgCMV/HyTK (selected for Hm^r or HAT^r), lowest concentration 0.03 μM GCV",inhibits growth; also recorded: almost completely inhibited
same,Effect of GCV on cell growth,"transfected Rat-2 cells; Rat-2 cells transfected with tgCMV/TK, higher concentrations required than for tgCMV/HyTK cells",inhibits growth; also recorded: inhibited
same,Effect of GCV on cell growth,"transfected Rat-2 cells; Rat-2 cells transfected with tgCMV/hygro, 0.03 μM-1.0 μM GCV",did not inhibit growth; also recorded: not inhibited
same,Growth as measured by colony formation,"NIH/3T3 cells [2]; NIH/3T3 cell pools infected with tgLS(+)HyTK or tgLS(−)CMV/HyTK, 500 μg/ml hygromycin B plus 1 μM GCV, 10 days",almost completely inhibited
same,Infected cells killed by GCV,NIH/3T3 cells [2]; cells infected with HyTK retroviral vectors,> 99.9%
same,Frequency of colonies resistant to both Hm and GCV,"NIH/3T3 cells [2]; retrovirus-infected NIH/3T3 populations, 500 μg/ml Hm plus 1 μM GCV",10^−4-10^−3
same,Growth of uninfected cells in GCV,"NIH/3T3 cells [2]; uninfected NIH/3T3, 1 μM GCV, 10 days",resistant
same,Regression of Abelson leukemia virus-induced lymphomas,"[3]; same transgenic mice, Moolten et al. 1990",full regression
same,Ablation of cells expressing the HSV-I TK gene,"[3]; transgenic animals, Heyman et al. 1989",selective ablation
same,Eradication of tumors induced by the sarcoma cells,murine sarcoma (K3T3),completely eradicated
"Nc1nc(=O)[nH]cc1F [5-FC, 5-fluorocytosine]",Sensitivity or resistance of cells to the drug,NIH/3T3 cells [4]; [5],sensitive
same,Sensitivity or resistance of cells to the drug,NIH/3T3 cells [4]; [6],resistant
same,Sensitivity or resistance of cells to the drug,NIH/3T3 cells [4]; [7],resistant
"CN[C@H]1C[C@@H](N)[C@H](O)[C@@H](O[C@@H]2O[C@H](CO)[C@H](O)[C@@H]3OC4(O[C@H]23)O[C@H]([C@@H](N)CO)[C@H](O)[C@H](O)[C@H]4O)[C@@H]1O (stereo partly drawn) [Hm, hygromycin B]",Growth of uninfected cells in Hm,"NIH/3T3 cells [2]; uninfected NIH/3T3, 500 μg/ml Hm, 10 days",completely killed
CN[C@@H]1[C@@H](O)[C@@H](O[C@@H]2[C@@H](O)[C@H](O[C@H]3O[C@H]([C@@H](C)O)[C@@H](O)[C@H](O)[C@H]3N)[C@@H](N)C[C@H]2N)OC[C@]1(C)O [G-418],Sensitivity or resistance of cells to the drug,NIH/3T3 cells [4]; [5],resistant
same,Sensitivity or resistance of cells to the drug,NIH/3T3 cells [4]; [6],resistant
same,Sensitivity or resistance of cells to the drug,NIH/3T3 cells [4]; [7],sensitive
